Counter-ions that a name gives are not always drawn.

We go through 19 compounds from US9765056B2, “Indole and pyrrole compounds, a process for their preparation and pharmaceutical compositions containing them” (LES LABORATOIRES SERVIER, priority 2013, dated 2017).

Assay [1] concerns RS4;11 leukaemia tumour line. Description: In vitro cytotoxicity, Microculture Tetrazolium Assay (MTT). In kind it is cell-based. The following applies: Homo sapiens; RS4;11 cells, 48 hours exposure. How it is done:
The cytotoxicity studies were carried out on the RS4;11 leukaemia tumour line.
The cells are distributed onto microplates and exposed to the test compounds for 48 hours. The cell viability is then quantified by a colorimetric assay, the Microculture Tetrazolium Assay (Cancer Res., 1987, 47, 939-942).

The next assay has as its target Bcl-2 protein (histag-Bcl-2, UniProtKB P10415) (Homo sapiens (Human), UniProt P10415). Description: Inhibition of Bcl-2 by the fluorescence polarisation technique. The class given is binding. The following applies: for IC50: fluorescence polarisation test, method A, or method B where underlined (underlining not visible), read-out: IC50 (nM) Bcl-2 FP. The source says: Inhibition of Bcl-2 by the fluorescence polarisation technique
(In fluorescence polarisation assays a small probe gives low polarisation when free and higher when bound to something large.)

Bcl-2 protein, sequence (P10415 whole entry): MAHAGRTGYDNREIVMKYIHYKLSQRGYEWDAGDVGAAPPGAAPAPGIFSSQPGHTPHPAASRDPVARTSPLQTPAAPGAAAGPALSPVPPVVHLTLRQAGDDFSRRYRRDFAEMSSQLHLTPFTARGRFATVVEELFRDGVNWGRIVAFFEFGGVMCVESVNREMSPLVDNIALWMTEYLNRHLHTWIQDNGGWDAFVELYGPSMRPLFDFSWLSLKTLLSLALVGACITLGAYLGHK

Usually IC50 stands for the concentration that gives 50% inhibition. `CN1CCN(C[C@@H]2Cc3ccccc3CN2C(=O)c2cc3c(cc2-n2cc(C(=O)N(CCc4ccccc4)c4ccc(O)cc4)c4ccccc42)OCO3)CC1` [Example 40, N-(4-Hydroxyphenyl)-1-(6-{[(3S)-3-[(4-methylpiperazin-1-yl)methyl]-3,4-dihydroisoquinolin-2(1H)-yl]carbonyl}-1,3-benzodioxol-5-yl)-N-(2-phenylethyl)-1H-indole-3-carboxamide]: the IC50 in assay [1] came out at 167 nM; at Bcl-2 protein, 7.8 nM.

In the case of `CCC1COc2cc(-n3cc(C(=O)N(c4ccccc4)c4ccc(O)cc4)c4ccccc43)c(C(=O)N3Cc4ccccc4C[C@H]3CN3CCN(C)CC3)cc2O1` (stereo partly drawn) [Example 185, 1-{2-Ethyl-7-[(3S)-3-[(4-methylpiperazin-1-yl)methyl]-1,2,3,4-tetrahydroisoquinoline-2-carbonyl]-2,3-dihydro-1,4-benzodioxin-6-yl}-N-(4-hydroxyphenyl)-N-phenyl-1H-indole-3-carboxamide], the figures for the IC50 (in assay [1]; at Bcl-2 protein) were 422 nM and 17.3 nM, respectively.

As for `Cc1cc(C(=O)N(c2ccc(O)cc2)c2ccc3c(ccn3C)c2)cn1-c1cc2c(cc1C(=O)N1Cc3ccccc3C[C@H]1CN1CCN(C)CC1)OCO2` [Example 90, N-(4-Hydroxyphenyl)-5-methyl-N-(1-methyl-1H-indol-5-yl)-1-(6-{[(3S)-3-[(4-methylpiperazin-1-yl)methyl]-3,4-dihydroisoquinolin-2(1H)-yl]carbonyl}-1,3-benzodioxol-5-yl)-1H-pyrrole-3-carboxamide], the IC50 came to 76.6 nM in assay [1] and 3.6 nM on Bcl-2 protein.

With `COc1cc(-n2cc(C(=O)N(c3ccccc3)c3ccccc3)c3ccccc32)c(C(=O)N2Cc3ccccc3C[C@H]2CN2CCN(C)CC2)cc1O` [Example 181, 1-{4-Hydroxy-5-methoxy-2-[(3S)-3-[(4-methylpiperazin-1-yl)methyl]-1,2,3,4-tetrahydroisoquinoline-2-carbonyl]phenyl}-N,N-diphenyl-1H-indole-3-carboxamide dihydrochloride], the 50% inhibitory concentration (IC50) came to 205 nM in assay [1] and 6.9 nM at Bcl-2 protein.

For the compound `COc1cc(-n2nc(C(=O)N(c3ccccc3)c3ccccc3)c3ccccc32)c(C(=O)N2Cc3ccccc3C[C@H]2CN)cc1O` [Example 135, 1-{2-[(3S)-3-(Aminomethyl)-1,2,3,4-tetrahydroisoquinoline-2-carbonyl]-4-hydroxy-5-methoxyphenyl}-N,N-diphenyl-1H-indazole-3-carboxamide], the IC50 was 461 nM in assay [1] and 10.4 nM at Bcl-2 protein.

For `Cc1cc(C(=O)N(c2ccc(O)cc2)c2cnc3c(ccn3C)c2)cn1-c1cc2c(cc1C(=O)N1Cc3ccccc3C[C@H]1CN1CCOCC1)OCO2` [Example 206, N-(4-Hydroxyphenyl)-5-methyl-N-(1-methyl-1H-pyrrolo[2,3-b]pyridin-5-yl)-1-(6-{[(3S)-3-(morpholin-4-ylmethyl)-3,4-dihydroisoquinolin-2(1H)-yl]-carbonyl}-1,3-benzodioxol-5-yl)-1H-pyrrole-3-carboxamide hydrochloride], the values for the IC50 (in assay [1]; on Bcl-2 protein) were 72.4 nM and 16.7 nM, respectively.

Consider `O=C(c1cn(-c2cc(Cl)ccc2C(=O)N2Cc3ccccc3C[C@H]2CN2CCOCC2)c2ccccc12)N(c1ccccc1)c1ccc(O)cc1` [Example 186, 1-{5-Chloro-2-[(3S)-3-(morpholin-4-ylmethyl)-1,2,3,4-tetrahydroisoquinoline-2-carbonyl}phenyl]-N-(4-hydroxyphenyl)-N-phenyl-1H-indole-3-carboxamide hydrochloride], for which the values for the IC50 (in assay [1]; at Bcl-2 protein) were 626 nM and 23.5 nM, respectively.

With `Cc1cc(C(=O)N(c2ccc(O)cc2)c2ccc3c(ccn3CCN3CCOCC3)c2)cn1-c1cc2c(cc1C(=O)N1Cc3ccccc3C[C@H]1C)OCO2` [Example 116, N-(4-Hydroxyphenyl)-5-methyl-1-(6-{[(3R)-3-methyl-3,4-dihydroisoquinolin-2(1H)-yl]carbonyl}-1,3-benzodioxol-5-yl)-N-{1-[2-(morpholin-4-yl)ethyl]-1H-indol-5-yl}-1H-pyrrole-3-carboxamide hydrochloride], the IC50 in assay [1] came to 131 nM; at Bcl-2 protein it was 12.1 nM.

Take `Cc1cc(C(=O)N(c2ccc(O)cc2)c2ccc3c(c2)CCN3)cn1-c1cc2c(cc1C(=O)N1Cc3ccccc3C[C@H]1CN1CCOCC1)CCC2` [Example 110, N-(2,3-Dihydro-1H-indol-5-yl)-N-(4-hydroxyphenyl)-5-methyl-1-(6-{[(3S)-3-(morpholin-4-ylmethyl)-3,4-dihydroisoquinolin-2(1H)-yl]carbonyl}-2,3-dihydro-1H-inden-5-yl)-1H-pyrrole-3-carboxamide hydrochloride]: the IC50 in assay [1] was found to be 291 nM; on Bcl-2 protein, 8.1 nM.

For the compound `CCCCN(C(=O)c1cn(-c2cc3c(cc2C(=O)N2Cc4ccccc4C[C@H]2CN2CCN(C)CC2)OCO3)c2ccccc12)c1ccc(O)cc1` [Example 33, N-Butyl-N-(4-hydroxyphenyl)-1-(6-{[(3S)-3-[(4-methylpiperazin-1-yl)methyl]-3,4-dihydroisoquinolin-2(1H)-yl]carbonyl}-1,3-benzodioxol-5-yl)-1H-indole-3-carboxamide], the IC50 was determined as 199 nM in assay [1] and 4.4 nM on Bcl-2 protein.

On to `COc1ccc(C(=O)N2Cc3ccccc3C[C@H]2CN2CCN(C)CC2)c(-n2cc(C(=O)N(c3ccc(O)cc3)c3ccc4c(ccn4C)c3)c3ccccc32)c1` [Example 205, N-(4-Hydroxyphenyl)-1-{5-methoxy-2-[(3S)-3-[(4-methylpiperazin-1-yl)methyl]-1,2,3,4-tetrahydroisoquinoline-2-carbonyl]phenyl}-N-(1-methyl-1H-indol-5-yl)-1H-indole-3-carboxamide], for which the IC50 in assay [1] came to 123 nM; on Bcl-2 protein it was 4.3 nM.

Take `Cc1ccc(N(C(=O)c2cc(C)n(-c3cc(Cl)ccc3C(=O)N3Cc4ccccc4C[C@H]3CN3CCN(C)CC3)c2)c2ccc(O)cc2)cc1` [Example 91, 1-(5-Chloro-2-{[(3S)-3-[(4-methylpiperazin-1-yl)methyl]-3,4-dihydroisoquinolin-2(1H)-yl]carbonyl}phenyl)-N-(4-hydroxyphenyl)-5-methyl-N-(4-methylphenyl)-1H-pyrrole-3-carboxamide]: the 50% inhibitory concentration (IC50) came to 172 nM in assay [1] and 5.3 nM on Bcl-2 protein.

As to `CN(C)C[C@@H]1Cc2ccccc2CN1C(=O)c1ccccc1-n1cc(C(=O)N(c2ccccc2)c2ccc(O)cc2)c2ccccc21` [Example 143, 1-{2-[(3S)-3-[(Dimethylamino)methyl]-1,2,3,4-tetrahydroisoquinoline-2-carbonyl]phenyl}-N-(4-hydroxyphenyl)-N-phenyl-1H-indole-3-carboxamide], the IC50 in assay [1] turned out to be 533 nM; at Bcl-2 protein it was 71.5 nM.

As for `CN1CCN(C[C@@H]2Cc3ccccc3CN2C(=O)c2cc3c(cc2-n2cc(C(=O)N(c4ccc(O)cc4)c4ccc5occc5c4)c4ccccc42)OCO3)CC1` [Example 44, N-(1-Benzofuran-5-yl)-N-(4-hydroxyphenyl)-1-(6-{[(3S)-3-[(4-methylpiperazin-1-yl)methyl]-3,4-dihydroisoquinolin-2(1H)-yl]carbonyl}-1,3-benzodioxol-5-yl)-1H-indole-3-carboxamide], the IC50 in assay [1] was 164 nM; at Bcl-2 protein, 6.8 nM.

Turning to `Cc1cc(C(=O)N(c2ccccc2)c2ccc(O)cc2)cn1-c1cc2c(cc1C(=O)N1Cc3ccccc3C[C@H]1CN1CCOCC1)CCC2` [Example 107, N-(4-Hydroxyphenyl)-5-methyl-1-(6-{[(3S)-3-(morpholin-4-ylmethyl)-3,4-dihydroisoquinolin-2(1H)-yl]carbonyl}-2,3-dihydro-1H-inden-5-yl)-N-phenyl-1H-pyrrole-3-carboxamide hydrochloride], the IC50 is 150 nM in assay [1] and 44 nM on Bcl-2 protein.

As a reminder, the inhibition is how much of the control response was suppressed. Turning to `COc1cc(-n2nc(C(=O)N(c3ccccc3)c3ccccc3)c3ccccc32)c(C(=O)N2Cc3ccccc3C[C@H]2CN)cc1OCc1ccccc1` [Example 134, 1-{2-[(3S)-3-(Aminomethyl)-1,2,3,4-tetrahydroisoquinoline-2-carbonyl]-4-(benzyloxy)-5-methoxyphenyl}-N,N-diphenyl-1H-indazole-3-carboxamide], the midpoint of inhibition in assay [1], the IC50, lay at 2100 nM. For the same compound, the inhibition at 22.2 µM on Bcl-2 protein (@22.2 μM test compound, partial inhibitor, read-out: percentage fluorescence polarisation inhibition (Bcl-2 FP)) came out at 72.1%.

Take `Cc1ccc(N(C(=O)c2cc(C)n(-c3cc(Br)ccc3C(=O)N3Cc4ccccc4C[C@H]3CN3CCN(C)CC3)c2)c2ccc(O)cc2)cc1` [Example 53, 1-(5-Bromo-2-{[(3S)-3-[(4-methylpiperazin-1-yl)methyl]-3,4-dihydroisoquinolin-2(1H)-yl]carbonyl}phenyl)-N-(4-hydroxyphenyl)-5-methyl-N-(4-methylphenyl)-1H-pyrrole-3-carboxamide]: the IC50 was 207 nM in assay [1] and 9 nM at Bcl-2 protein.

Take `COc1cc(-n2cc(C(=O)N(c3ccccc3)c3ccc(C)cc3)c3ccccc32)c(C(=O)N2Cc3ccccc3C[C@H]2CN2CCN(C)CC2)cc1O` [Example 193, 1-{4-Hydroxy-5-methoxy-2-[(3S)-3-[(4-methylpiperazin-1-yl)methyl]-1,2,3,4-tetrahydroisoquinoline-2-carbonyl]phenyl}-N-(4-methylphenyl)-N-phenyl-1H-indole-3-carboxamide]: the IC50 was 499 nM in assay [1] and 5.6 nM at Bcl-2 protein.

In the case of `Cc1ccc(N(C(=O)c2cn(-c3cc(Cl)ccc3C(=O)N3Cc4ccccc4C[C@H]3CN3CCN(C)CC3)c3ccccc23)c2ccc(O)cc2)cc1` [Example 74, 1-(5-Chloro-2-{[(3S)-3-[(4-methylpiperazin-1-yl)methyl]-3,4-dihydroisoquinolin-2(1H)-yl]carbonyl}phenyl)-N-(4-hydroxyphenyl)-N-(4-methylphenyl)-1H-indole-3-carboxamide], the IC50 in assay [1] is 162 nM; at Bcl-2 protein, 4.2 nM.
